Reference: PMC9983021, “Novel GluN2B-Selective NMDA Receptor Negative Allosteric Modulator Possesses Intrinsic Analgesic Properties and Enhances Analgesia of Morphine in a Rodent Tail Flick Pain Model” (ACS Chemical Neuroscience, 2023)
pIC50: −log10 of the molar value.

Legend:
[1] = test system: C57BL/6J mice; assay: Hot water tail immersion test, compound alone (intrinsic antinociception); type: in vivo; details: for effect on tail flick latency vs vehicle: n = 8 per group
Excerpt: After evaluating EU93-108 in vitro, we next evaluated a panel of GluN2B inhibitors for their ability to produce an antinociceptive effect using a classical model of pain perception, determination of tail flick latency for mice when their tails are placed in hot water (Figures 4 and 5). The hot water tail immersion test is a well-validated method of assessing reflexive (i.e., spinal) pain-like response in rodents.[80]−[83] We interpret a drug-induced increase in tail flick latency as analgesia.
The inhibitors were injected i.p. 30 min prior to a hot water tail immersion test. Four treatment groups and one control group were used (n = 8 per group) where the control group received vehicle (10% DMSO, 20% PEG, 2% DMA in water) and groups 1 through 4 were randomly assigned one dose of the appropriate compound.
(§1) All animal studies performed at Emory have been approved by the Institutional Animal Care and Use Committee at Emory University. Male and female C57BL/6J mice weighing between 20 and 30 g were housed five per cage and given ad libitum access to food and water. The mice were 8–10 weeks of age at the time of experimentation. Animal holding rooms operated on a 12 h dark/light cycle with the dark cycle from 7:00 pm to 7:00 am. Mice were allowed to acclimate in cages for one week after arrival. The mice were handled regularly and habituated to scruffing and cloth restraint for 3–5 days prior to experimentation.
Mouse weights were recorded on the day of each experiment. Mice were given the appropriate treatment(s) 30 min prior to testing. All injection volumes were 10 mL/kg (e.g., 350 μL for a 35 g mouse). For the tail immersion experiments, each mouse was restrained with a Wypall cloth, leaving the tail exposed. The distal two-thirds of the tail was lowered into a sous vide water bath set to 48 °C, and a stopwatch with a resolution of 0.01 s was used to record the time elapsed between immersion and tail flick. Three recordings were taken for each mouse, and each data point is expressed as the mean of the three recordings. A cut-off time of 25 s was implemented to prevent tissue damage or scarring. For each experiment, the identities of the doses were coded by an independent researcher to ensure blinding. The identities were not decoded until the data were analyzed.
(§2) Prism 9.3.1 software (GraphPad, San Diego, CA) was used for all data analysis and visualization. Data for intrinsic antinociception was analyzed using one-way ANOVA and Dunnett’s post hoc test for multiple comparisons where each group was compared to vehicle. Data for acute morphine potentiation experiments were analyzed using one-way ANOVA and Tukey’s post hoc test for multiple comparisons was also used, where each group mean was compared to the mean of every other group. Data for tolerance experiments were analyzed using repeated measures two-way ANOVA and Bonferroni post hoc analysis. Data are presented as mean ± SEM and p < 0.05 constitutes significance.

[2] = test system: C57BL/6J mice; assay: Hot water tail immersion test, acute co-administration with 5 mg/kg morphine; type: in vivo; details: for lowest dose that significantly increased latency: plus 5 mg/kg morphine s.c.
Description: We were next interested in evaluating the effects of EU93-108 when given acutely in combination with morphine. 5 mg/kg morphine was chosen because this dose elicited an approximately half-maximal response in our initial morphine dose–response curve (Supporting Figure S3). This half-maximal response would allow us to see any changes in tail flick latency that EU93-108 might elicit.
Four treatment groups and one control group were used (n = 8 per group). The control group received vehicle (10% DMSO, 20% PEG, 2% DMA in water) i.p. plus 5 mg/kg morphine s.c. formulated in normal saline, and groups 1–4 were randomly assigned one dose of EU93-108 i.p. plus 5 mg/kg morphine s.c. The doses used were the same as in the intrinsic analgesia experiments.
as §1, with “The mice were handled regularly and habituated to scruffing and cloth restraint for 3–5 days prior to experimentation.” left out
Mouse weights were recorded on the day of each experiment. […] Three recordings were taken for each mouse, and each data point is expressed as the mean of the three recordings. […] The identities were not decoded until the data were analyzed.
as §2, with “Data are presented as mean ± SEM and p < 0.05 constitutes significance.” left out

[3] = test system: BZP Rat Brain Site; assay: Radioligand binding assay (NIMH PDSP); details: primary screen, 10 µM, quadruplicate
Description: (§3) Conventional competition and saturation radioligand binding assays were used to determine the affinities of reference standards and EU93-108. Experiments were carried out by the NIMH Psychoactive Drug Screening Program (PDSP) and were performed as previously described.[123]
(§4) The detailed experimental protocols for the radioligand assays are available on the NIMH PDSP website at https://pdsp.unc.edu/pdspweb/content/UNC-CH%20Protocol%20Book.pdf.
(§5) Receptor Mean % Receptor Mean % Receptor Mean %
(§6) Inhibition Inhibition Inhibition
(§7) Supplemental Table S4. Off-Target Actions of EU93-108: Primary GPCR Screen. Cloned human molecular targets were individually expressed and submitted to molecular target-based screening with initial screens performed at a final concentration of 10 µM in quadruplicate. Complete protocols for the assays have been previously published (Besnard J et al. 2012). Where inhibition greater than 50% was measured, secondary screens were performed wherein Ki values were calculated (see Table 4).

[4] = biological target: T1, DOR (Homo sapiens, UniProt P41143); assay: Radioligand binding assay (NIMH PDSP); details: primary screen, quadruplicate
T1 construct: purchased NIMH Psychoactive Drug Screening Program (PDSP)
T1 sequence (P41143 whole entry): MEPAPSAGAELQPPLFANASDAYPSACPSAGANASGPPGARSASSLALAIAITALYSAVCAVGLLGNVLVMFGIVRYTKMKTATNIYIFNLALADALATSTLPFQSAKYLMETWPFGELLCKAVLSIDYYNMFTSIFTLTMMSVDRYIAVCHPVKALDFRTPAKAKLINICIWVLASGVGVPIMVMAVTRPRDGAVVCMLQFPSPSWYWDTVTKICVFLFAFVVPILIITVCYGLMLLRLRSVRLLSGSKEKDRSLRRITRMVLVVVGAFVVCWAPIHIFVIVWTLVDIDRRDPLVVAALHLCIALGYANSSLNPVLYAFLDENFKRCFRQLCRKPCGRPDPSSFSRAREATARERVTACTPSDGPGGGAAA
Description: as §3, §4, §5, §6, §7

[5] = biological target: diheteromeric rat GluN1/GluN2Ac1/GluN2Ac2 (r2Ac1/r2Ac2) (Rattus norvegicus, UniProt P35439+Q00959); assay: Concentration-inhibition curves, oocytes, C1/C2-tagged NMDARs
[6] = biological target: diheteromeric rat GluN1/GluN2Bc1/GluN2Bc2 (r2Bc1/r2Bc2) (Rattus norvegicus, UniProt P35439+Q00959+Q00960, A876H/F846L/G856D/H848F/K857R/M851T/M860L/Q845K/V861L); assay: as above; type: cell-based
Sequence of diheteromeric rat GluN1/GluN2Bc1/GluN2Bc2 (r2Bc1/r2Bc2) (Q00960+Q00959 fused with the stated changes, other chains not shown): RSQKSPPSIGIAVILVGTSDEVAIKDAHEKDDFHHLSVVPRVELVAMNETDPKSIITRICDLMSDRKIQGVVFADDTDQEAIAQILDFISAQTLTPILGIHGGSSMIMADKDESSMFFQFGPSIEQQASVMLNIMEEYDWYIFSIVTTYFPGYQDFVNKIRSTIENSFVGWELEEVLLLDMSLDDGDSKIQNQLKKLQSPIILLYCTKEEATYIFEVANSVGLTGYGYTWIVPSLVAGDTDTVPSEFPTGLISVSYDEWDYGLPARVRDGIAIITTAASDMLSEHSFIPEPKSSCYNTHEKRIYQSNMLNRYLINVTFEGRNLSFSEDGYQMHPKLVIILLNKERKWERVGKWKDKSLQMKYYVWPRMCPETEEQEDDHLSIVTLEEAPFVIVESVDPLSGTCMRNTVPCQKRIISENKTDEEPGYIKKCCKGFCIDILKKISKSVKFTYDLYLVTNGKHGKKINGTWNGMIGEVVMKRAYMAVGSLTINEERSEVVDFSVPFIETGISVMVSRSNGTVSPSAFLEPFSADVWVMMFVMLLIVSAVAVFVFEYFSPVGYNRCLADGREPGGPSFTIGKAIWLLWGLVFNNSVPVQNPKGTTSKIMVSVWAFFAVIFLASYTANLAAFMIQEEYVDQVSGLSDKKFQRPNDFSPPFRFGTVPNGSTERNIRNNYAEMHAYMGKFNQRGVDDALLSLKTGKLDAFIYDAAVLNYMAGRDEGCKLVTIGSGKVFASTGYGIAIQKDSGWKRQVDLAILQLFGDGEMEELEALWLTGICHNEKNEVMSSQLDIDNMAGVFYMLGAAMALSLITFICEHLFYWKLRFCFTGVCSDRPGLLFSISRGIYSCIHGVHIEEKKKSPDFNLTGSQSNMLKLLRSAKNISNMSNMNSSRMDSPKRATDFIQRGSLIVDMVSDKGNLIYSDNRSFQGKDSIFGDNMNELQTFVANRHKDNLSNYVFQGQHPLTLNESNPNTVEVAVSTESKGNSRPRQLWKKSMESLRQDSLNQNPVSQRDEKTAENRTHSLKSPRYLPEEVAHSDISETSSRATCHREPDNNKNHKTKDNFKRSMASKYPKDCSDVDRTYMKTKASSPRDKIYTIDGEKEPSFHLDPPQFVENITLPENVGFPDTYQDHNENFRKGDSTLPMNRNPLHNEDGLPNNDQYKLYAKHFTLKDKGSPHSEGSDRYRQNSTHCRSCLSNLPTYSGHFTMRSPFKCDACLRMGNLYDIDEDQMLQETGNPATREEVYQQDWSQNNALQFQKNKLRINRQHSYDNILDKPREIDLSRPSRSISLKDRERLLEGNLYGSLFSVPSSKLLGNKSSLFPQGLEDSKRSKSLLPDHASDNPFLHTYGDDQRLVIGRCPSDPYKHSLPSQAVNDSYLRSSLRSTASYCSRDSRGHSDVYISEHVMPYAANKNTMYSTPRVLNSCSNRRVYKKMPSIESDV
Sequence of diheteromeric rat GluN1/GluN2Bc1/GluN2Bc2 (r2Bc1/r2Bc2) (Q00960+Q00959 fused with the stated changes, other chains not shown): as above

[7] = male mice, i.p. 30 min prior to test

SMILES: CS(=O)(=O)Nc1ccc(OC[C@@H](O)CN2CCN(c3ccc(F)c(F)c3)CC2)cc1 [EU93-108, (S)-N-(4-(3-(4-(3,4-Difluorophenyl)piperazin-1-yl)-2-hydroxypropoxy)phenyl)methanesulfonamide]
- ED50 ([1]; Mus musculus, ip, male mice, i.p., fitted dose–response curve, estimated, read-out: ED50 (tail flick latency), EU93-108 alone): 9.7 mg/kg
- dose at which significant increase in latency was achieved ([1]; female mice, i.p.): 60 mg/kg
- effect on tail flick latency vs vehicle ([1]; female mice, i.p. 30 min prior to test): increased latency, but only at 60 mg/kg
- mean latency increase [1, 7]: 16 s
- effect on tail flick latency vs vehicle [1, 7]: significant increases in latency at the two highest doses tested (30 and 60 mg/kg)
- dose at which significant latency increases were achieved ([1]; male mice, i.p., lowest significant dose): 30 mg/kg
- lowest dose that significantly increased latency ([2]; female mice): 20 mg/kg
- potency when combined with morphine versus EU93-108 alone ([2]; male mice): approximately 3 fold
- lowest dose that significantly increased latency ([2]; male mice): 10 mg/kg
- Mean % Inhibition [3]: 14.68%
- inhibition at 10 µM [4]: -8.82%
- residual current at 10 μM ([5]; 10 μM, % of maximal response, n = 6): 105%
- Ymin ([5]; residual response, Table S1, N = 6): 104.8
- residual current remaining at 10 μM EU93-108 ([6]; 10 μM, % of maximal response, n = 8): 10.6%
- pIC50 ([6]; 100 μM glutamate and 100 μM glycine, −40 mV, pH 7.4, n = 8): 6.63
- nH ([6]; Hill slope factor of the inhibition curve, Table S1): -1.06
- Ymin ([6]; residual response, Table S1, N = 8): 10.6
